From US8980874B2, “Method and composition for treating diabetic ketoacidosis” (Midwestern University, priority 2009, dated 2015)
Entries after “also recorded” stand apart in the source; their conditions may differ. Where a name gives a salt, the structure may show the parent alone. Non-standard residues stand in square brackets, D forms with d. Residues, ends and D or L forms follow the SMILES beside them.

Tests used:
rat model of DKA [1] = assay: Blood ketone levels in diabetic ketoacidosis rats; assay type: in vivo; conditions: for blood ketone levels, Day (pre tx): baseline before treatment; for blood ketone levels, Day (pre tx) / blood ketone levels, Day 4 (end of tx): mean±SEM; for effect of treatment on blood ketones: day 4, result in words (Table 2, FIG. 2); for blood ketone levels, Day 4 (end of tx): saline+insulin, alone or after bolus BMS-182874 9 mg/kg or BQ123 1 mg/kg
Method: Normotensive Sprague Dawley rats were kept on fasting for 2 hours with unlimited access to water. After 2 hours of fasting, rats were injected intraperitoneally with 150 mg/kg of streptozotocin in 0.05 mol/L citric acid, pH 4.3 to induced diabetes (Lam et al., 2005; Yuen et al., 2008), while non-diabetic control rats received an intraperitoneal injection of 0.05 mol/L citrate buffer (Lam et al., 2005; Yuen et al., 2008). Rats were allowed unlimited access to tap water and food. Each day rats were weighed and urine ketone levels were estimated by Urine Reagent Strips, 1K Parameter. Prior to streptozotocin or citrate buffer injection, baseline blood glucose levels were assessed by One Touch Ultra blood glucose strips from Lifescan, Milpitas, Calif., and baseline blood ketone levels were estimated using Cardiochek blood ketone analyzer. Blood glucose and ketone were measured again on day three and four to ensure the onset of hyperglycemia and ketoacidosis. […] Blood samples were withdrawn from the femoral […] for baseline reading prior to start of treatment, after the first hour of treatment, and then at the end of the treatment (fifth hour of experiment).
The animals were allowed to stabilize for at least 20 minutes following surgical procedures. Body weight, blood glucose, urinary ketone, blood ketone, arterial blood gases, blood electrolytes, mean arterial pressure, pulse pressure, heart rate, brain blood perfusion, brain and lung water content were determined in the following groups
(§1) Group 4: Diabetic saline/insulin treated (D-Saline+insulin treated): Rats were injected with streptozotocin in citrate buffer (150 mg/kg ip) to induce diabetes and ketoacidosis. On day three, rats were treated with 1.5 U/kg regular insulin (Humulin® R (Regular human insulin, rDNA origin). On day four, saline and insulin treatment was carried out. Rats were infused via cannulated femoral vein saline, 0.9% NaCl at 80 mL/kg/hr and 1.5 U/kg/hr regular insulin for one hour. During the next two through four hours, rats were infused with saline, 0.9% NaCl at 40 mL/kg/hr and 1.5 U/kg/hr regular insulin (Yuen et al., 2008).
(§2) Group 5: Diabetic BMS-182874/saline/insulin treated (D-BMS+Saline+insulin treated): Rats were injected with streptozotocin in citrate buffer (150 mg/kg ip) to induce diabetes and ketoacidosis. On day three, rats were treated with 1.5 U/kg regular insulin. On day four, rats were administered a bolus dose of selective ETA receptor antagonist, BMS-182874 (9 mg/kg), then saline and insulin treatment was carried out. Rats were infused via cannulated femoral vein saline, 0.9% NaCl at 80 mL/kg/hr and 1.5 U/kg/hr regular insulin for one hour. During the next two through four hours rats were infused with saline, 0.9% NaCl at 40 mL/kg/hr and 1.5 U/kg/hr regular insulin.
(§3) Group 6: Diabetic BQ123/saline/insulin treated (D-BQ+saline+insulin treated): Same as above for Group 5, except BQ123 (1 mg/kg body weight) is used as a substitute for BMS-182874 (9 mg/kg).
(§4) Data are presented as mean±SEM. The significance of differences was estimated by one-way analysis of variance (intra group comparison with respect to base line data) and two-way analysis of variance (inter group comparison with respect to corresponding time points from each groups) followed by application of the Dunnett's Multiple Comparisons and Bonferroni test respectively. A P value of less than 0.05 was considered to be significant. The statistical analysis was processed with GraphPad Prism software Version 5.00.

rat model of DKA [2] = assay: Plasma ET-1 level (Enzyme Immunometric Assay) in diabetic ketoacidosis rats; assay type: in vivo; conditions: for plasma ET-1, Day 4 (pre tx): baseline before treatment; for plasma ET-1, Day 4 (pre tx) / plasma ET-1, Day 4 (end of tx): mean±SEM; for effect of treatment on plasma ET-1 level: day 4, result in words (Table 4, FIG. 9); for plasma ET-1, Day 4 (end of tx): saline+insulin, alone or after bolus BMS-182874 9 mg/kg or BQ123 1 mg/kg
Method: In order to analyze the change in plasma ET-1 level during the treatment, blood samples were withdrawn through right femoral artery of the rats before and at the end of experiment and were collected into chilled EDTA tubes (1 mg/mL blood) containing aprotinin (500 KIU/mL of blood). The blood samples were centrifuged at 1,600×g for 15 minutes at 0° C. and plasma separated was stored at −70° C. until analyzed. ET-1 level was estimated using Assay's Design's Endothelin-1 Enzyme Immunometric Assay Kit (Nowicki et al., 2005; Brondani et al., 2007). Briefly, plasma samples and standards were added to wells coated with a monoclonal antibody specific for ET-1. The plate then was washed after 24 hours of incubation, leaving only bound ET-1 on the plate. A solution of horseradish peroxidase (HRP) labeled monoclonal antibody to ET-1 then was added, which binds to the ET-1 captured on the plate. The plate was incubated for 30 min, then washed to remove excess HRP labeled antibody. A solution of 3,3′,5,5′-tetramethylbenzidine (TMB) substrate was added, which generates a blue color when catalyzed by the HRP. Hydrochloric acid (1N) was added to stop the substrate reaction, and the resulting yellow color was read at 450 nm using DTX 800 Multimode detector. The data was analyzed with Multimode Detection Software (Beckman Coulter, Inc., Fullerton, Calif.). The measured optical density is directly proportional to the concentration of ET-1 in either standards/plasma. Blood samples from all the groups were collected before the start and at end of the treatment.
as §1, §2, §3, §4

rat model of DKA [3] = assay: Brain and lung water content in diabetic ketoacidosis rats; assay type: in vivo; conditions: end of treatment; for effect on lung water content (pulmonary edema): FIG. 7, result in words; for effect on brain water content (cerebral edema): FIG. 8, result in words
Method: Water content in the lung and brain was determined to assess brain and pulmonary edema. Assessment of brain and lung water content was carried out as follows. At the end of treatment the animal was sacrificed and trachea was immediately tied, then the lungs were dissected out. The skull was opened and brain dissected out. Brain and lungs were rinsed with saline, and weighed (wet weight). The brain and lungs were kept for drying in an oven at a temperature of 60° C. for 72 hours, then weighed again (dry weight). The percent water content was calculated using the formula: [(wet weight−dry weight)/wet weight×100].
as §1, §2, §3, §4

[4] = tested on: rats induced with neurogenic pulmonary edema; conditions: cited from earlier work
[5] = tested on: intrathecal (IT) injection of ET-1 into rats; conditions: pre-treatment, intrathecal ET-1 in rats; cited from earlier work

Molecule: Cc1noc(NS(=O)(=O)c2cccc3c(N(C)C)cccc23)c1C [BMS-182874, (5-Dimethylamino)-N-(3,4-dimethyl-5-isoxazolyl)-1-naphthalene sulfonamide hydrochloride]
- blood ketone levels, Day (pre tx) (rat model of DKA [1]): 31.01 ± 2.29 mg/dL
- effect of treatment on blood ketones (rat model of DKA [1]; hydrochloride): did not significantly affect blood ketones
- effect of treatment on blood ketones (rat model of DKA [1]; listed as BMS, hydrochloride): produced a significant decrease in blood ketones
- blood ketone levels, Day 4 (end of tx) (rat model of DKA [1]): 14.65 ± 2.70 mg/dL
- plasma ET-1, Day 4 (pre tx) (rat model of DKA [2]): 11.93 ± 2.01 pg/mL
- effect of treatment on plasma ET-1 level (rat model of DKA [2]): did not significantly affect plasma ET-1 level
- plasma ET-1, Day 4 (end of tx) (rat model of DKA [2]): 20.40 ± 3.23 pg/mL
- effect on lung water content (pulmonary edema) (rat model of DKA [3]): restored lung water content
- effect on brain water content (cerebral edema) (rat model of DKA [3]): restored brain water content

Molecule: CC(C)C[C@@H]1NC(=O)[C@@H](C(C)C)NC(=O)[C@@H]2CCCN2C(=O)[C@@H](CC(=O)O)NC(=O)[C@@H](Cc2c[nH]c3ccccc23)NC1=O [BQ123, Cyclo(D-Trp-D-Asp-Pro-D-Val-Leu)] (cyclo(L[dW][dD]P[dV]))
- blood ketone levels, Day (pre tx) (rat model of DKA [1]): 28.22 ± 3.14 mg/dL
- effect of treatment on blood ketones (rat model of DKA [1]): particularly marked decrease in blood ketones; also recorded: significantly decrease the blood ketones
- blood ketone levels, Day 4 (end of tx) (rat model of DKA [1]): 5.2 ± 0.36 mg/dL
- plasma ET-1, Day 4 (pre tx) (rat model of DKA [2]): 15.78 ± 4.11 pg/mL
- effect of treatment on plasma ET-1 level (rat model of DKA [2]): did not significantly affect plasma ET-1 level
- plasma ET-1, Day 4 (end of tx) (rat model of DKA [2]): 26.53 ± 5.52 pg/mL
- effect on lung water content (pulmonary edema) (rat model of DKA [3]): restored lung water content
- effect on brain water content (cerebral edema) (rat model of DKA [3]): restored brain water content
- effect on hypoxia and hypercapnea [4]: ameliorated
- effect on pulmonary edema [5]: prevented pulmonary edema
- reduction of mortality rate [5]: 50%

Molecule: Insulin: Humulin® R (Regular human insulin, rDNA origin), infused with saline
- blood ketone levels, Day (pre tx) (rat model of DKA [1]): 31.925 ± 5.28 mg/dL
- effect of treatment on blood ketones (rat model of DKA [1]): produced a significant decrease in blood ketones
- blood ketone levels, Day 4 (end of tx) (rat model of DKA [1]): 12.8 ± 4.04 mg/dL
- plasma ET-1, Day 4 (pre tx) (rat model of DKA [2]): 11.76 ± 1.94 pg/mL
- effect of treatment on plasma ET-1 level (rat model of DKA [2]): increased the plasma levels of ET-1
- plasma ET-1, Day 4 (end of tx) (rat model of DKA [2]): 22.17 ± 2.67 pg/mL
- effect on lung water content (pulmonary edema) (rat model of DKA [3]): restored lung water content
- effect on brain water content (cerebral edema) (rat model of DKA [3]): restored brain water content
